Structures can show the parent of a compound that is named as a salt. Where two headings read alike, the source gives them in different places.
Tests used:
[1] = test system: Plasmodium falciparum strain 3D7; experiment: Growth inhibition assay with asexual Plasmodium falciparum (HRP2 ELISA); assay type: cell-based; conditions: for Fold differences, 3 day-assays: IC50 3D7 versus A1-H.1, 3 days; for Fold differences, 6 day-assays: IC50 3D7 versus A1-H.1, 6 days
HepG2 cells = experiment: Cytotoxicity, neutral red assay; assay type: cell-based, human; conditions: for IC50: read-out: IC50 (μM) in HepG2 cells; for SI 3D7: selectivity index HepG2 versus P. falciparum 3D7; for SI A1-H.1: selectivity index HepG2 versus P. knowlesi A1-H.1
[2] = test system: Plasmodium falciparum Dd2 (multidrug-resistant); experiment: Growth inhibition assay, resistant strain Dd2; assay type: cell-based; conditions: read-out: IC50, Dd2
[3] = test system: Plasmodium falciparum K1 (multidrug-resistant); experiment: Growth inhibition assay, resistant strain K1; assay type: cell-based; conditions: read-out: IC50, K1
[4] = test system: Plasmodium falciparum 7G8 (chloroquine resistant); experiment: Growth inhibition assay, resistant strain 7G8; assay type: cell-based; conditions: read-out: IC50, 7G8
[5] = test system: mature (stage IV-V) Plasmodium falciparum gametocytes (NF54); experiment: In vitro activity against mature gametocytes (ATP production, BacTiterGlo); assay type: cell-based; conditions: 48 h
[6] = test system: Plasmodium falciparum strain 3D7; experiment: Apicoplast as target: growth inhibition with and without IPP supplementation; assay type: cell-based; conditions: 3D7, 6 days
[7] = test system: Plasmodium falciparum strain 3D7; experiment: Ionophoric activity assay: growth inhibition with KCl or MgCl2 supplementation; assay type: cell-based
Mycobacterium bovis = conditions: cited from earlier work
[8] = test system: Plasmodium falciparum 3D7 and Dd2 asexual stages; experiment: Thin blood smear microscopy (Giemsa); conditions: 1 nM for 6 h
Protocol: Then, thin blood smears were prepared, fixed in 100% methanol for 10 seconds, and stained with Giemsa (Merck) solution (5%) for 20 minutes. The slides were washed and observed under a Leica DMBL microscope, and pictures were taken using a ProgRes C10 camera and software (Jenoptik), at 100× magnification.

[9] = Plasmodium falciparum, 3D7, 72 h, read-out: IC50, 3 day-assays, 3D7
[10] = Plasmodium falciparum, 3D7, 144 h, read-out: IC50, 6 day-assays, 3D7
[11] = Plasmodium falciparum, 72 h, P. falciparum 3D7, 3 days of incubation, read-out: IC50, 3 day-assays, 3D7
[12] = Plasmodium falciparum, 144 h, P. falciparum 3D7, 6 days of incubation, read-out: IC50, 6 day-assays, 3D7
[13] = Plasmodium falciparum, NF54, stage IV and V gametocytes

With CON(C)Cc1ccc(O)c2c1C[C@H]1C[C@H]3[C@H](N(C)C)C(O)=C(C(N)=O)C(=O)[C@@]3(O)C(O)=C1C2=O [Sarecycline, Sarecycline hydrochloride] the “Fold differences, 3 day-assays” value [1] was 7.1, the “Fold differences, 6 day-assays” value [1] was 0.26 and the IC50 [1, 9] was 13.4 ± 1.05 µM. The IC50 [1, 10] was 0.244 ± 0.136 µM.
In the case of CO[C@H]1C[C@H](O[C@H]2[C@H](C)[C@@H](O[C@@H]3O[C@H](C)C[C@H](N(C)C)[C@H]3O)[C@@H](C)C[C@@]3(CO3)C(=O)[C@H](C)[C@@H](O)[C@@H](C)[C@@H](C)OC(=O)[C@@H]2C)O[C@@H](C)[C@@H]1O [Oleandomycin], the IC50 [1, 11] is reported as 8.19 ± 3.85 µM and the IC50 [1, 12] is reported as > 18 µM.
In the case of CO[C@H]1C[C@H](O[C@H]2[C@H](C)[C@@H](O[C@@H]3O[C@H](C)C[C@H](N(C)C)[C@H]3OC(C)=O)[C@@H](C)C[C@@]3(CO3)C(=O)[C@H](C)[C@@H](OC(C)=O)[C@@H](C)[C@@H](C)OC(=O)[C@@H]2C)O[C@@H](C)[C@@H]1OC(C)=O [Troleandomycin], the IC50 [1, 11] is reported as > 18 µM and the IC50 [1, 12] is reported as > 18 µM.
For C=C1c2c(Cl)ccc(O)c2C(=O)C2=C(O)[C@]3(O)C(=O)C(C(N)=O)=C(O)[C@@H](N(C)C)[C@@H]3[C@@H](O)[C@H]12 [Meclocycline], the “Fold differences, 6 day-assays” value [1] was 0.19, the IC50 [1, 9] was > 18 µM and the IC50 [1, 10] was 0.292 ± 0.041 µM.
In the case of CC(C)[C@@H](N)C(=O)O[C@H](C)[C@@H]1C/C=C\CC[C@H](O)C(C)(C)[C@@H]2CC[C@@H](C)[C@@]3(O2)O[B-]24O[C@@H](C(=O)O1)[C@]1(O[C@@H](CC[C@H]1C)C(C)(C)[C@H](O)CCC[C@@H]1C[C@H](OC(=O)[C@@H]3O2)[C@@H](C)O1)O4.[H+] [Boromycin], the IC50 ([1]; 3D7, 3 days of incubation, comparator for resistant strains, read-out: IC50, 3D7 (Table 4)) is reported as 0.0009 ± 0.0001 µM, the “Fold differences, 3 day-assays” value [1] is reported as 0.15 and the “Fold differences, 6 day-assays” value [1] is reported as 0.29. For the same molecule, the IC50 ([1]; P. falciparum 3D7, 3 days of incubation, read-out: IC50, 3 day-assays, 3D7) was 0.0009 ± 0.0001 µM, the IC50 (HepG2 cells; HepG2, 24 hours drug incubation, neutral red) was 1250 ± 230 µM and the “selectivity index (SI)” value (HepG2 cells; HepG2 versus Plasmodium) was “higher than 200,000”. For the same molecule, the “SI 3D7” value (HepG2 cells) was 1,388,000, the “SI A1-H.1” value (HepG2 cells) was 211,864 and the IC50 ([2]; Dd2, 3 days of incubation) was 0.0006 ± 0.0004 µM. For the same molecule, the IC50 ([3]; K1, 3 days of incubation) was 0.0007 ± 0.0001 µM, the IC50 ([4]; 7G8, 3 days of incubation) was 0.0004 ± 7e-05 µM and the IC50 ([5]; stage IV and V gametocytes) was 0.0085 ± 0.0036 µM. It also gave an IC50 ([6]; supplemented with IPP, read-out: IC50, IPP-supplemented) of 0.0014 µM, an IC50 ([6]; without IPP, read-out: IC50, control without IPP) of 0.0009 µM and an IC50 ([7]; 3D7, 3 days, KCl 220 μg/ml, read-out: IC50, KCl supplemented) of 2.1 ± 0.2 nM. The IC50 ([7]; 3D7, 3 days, MgCl2 220 μg/ml, read-out: IC50, MgCl2 supplemented) was 0.2 nM, the IC50 ([7]; 3D7, 3 days, no supplementation, read-out: IC50 (in nM) control) was 0.7 ± 0.1 nM and the “increase of IC50 by supplementation of KCl” value ([7]; KCl at 220 μg/mL versus control) was 3 fold. The “boromycin activity with external KCl” value (Mycobacterium bovis; KCl 20 mg/mL) was 10%, the “boromycin activity without added KCl” value (Mycobacterium bovis; before addition of KCl) was 50% and the “parasite morphology, strain 3D7” value ([8]; 3D7) was “pyknotic appearance”. The “parasite morphology, strain Dd2” value ([8]; Dd2) was “pyknotic appearance”.
Work on CN(C)c1ccc2nc3ccc(=[N+](C)C)cc-3sc2c1 [methylene blue, Methylene Blue] yielded an IC50 [5, 13] of 0.284 ± 0.035 µM.
For CN(C)[C@@H]1C(O)=C(C(N)=O)C(=O)[C@@]2(O)C(O)=C3C(=O)c4c(O)ccc(Cl)c4[C@@](C)(O)[C@H]3C[C@@H]12 [Chlortetracycline], the IC50 [1, 11] was > 18 µM and the IC50 [1, 12] was > 18 µM.
In the case of CN(C)[C@@H]1C(O)=C(C(N)=O)C(=O)[C@@]2(O)C(O)=C3C(=O)c4c(O)ccc(Cl)c4[C@@H](O)[C@H]3C[C@@H]12 [Demeclocycline], the “Fold differences, 6 day-assays” value [1] is reported as 1.06, the IC50 [1, 11] is reported as > 18 µM and the IC50 [1, 12] is reported as 0.41 ± 0.165 µM.
For CN(C)c1cc(CNCC(C)(C)C)c(O)c2c1C[C@H]1C[C@H]3[C@H](N(C)C)C(O)=C(C(N)=O)C(=O)[C@@]3(O)C(O)=C1C2=O [Omadacycline], the “Fold differences, 3 day-assays” value [1] was 7.3, the “Fold differences, 6 day-assays” value [1] was 0.86 and the IC50 [1, 11] was 8.44 ± 0.618 µM. It also gave an IC50 [1, 12] of 0.248 ± 0.109 µM.
In the case of CN(C)c1ccc(O)c2c1C[C@H]1C[C@H]3[C@H](N(C)C)C(O)=C(C(N)=O)C(=O)[C@@]3(O)C(O)=C1C2=O [Minocycline, Minocycline hydrochloride], the “Fold differences, 3 day-assays” value [1] is reported as 3, the “Fold differences, 6 day-assays” value [1] is reported as 0.56 and the IC50 [1, 11] is reported as 9.39 ± 4.35 µM. The IC50 [1, 12] was 0.0835 ± 0.025 µM.
With C=C1c2cccc(O)c2C(=O)C2=C(O)[C@]3(O)C(=O)C(C(N)=O)=C(O)[C@@H](N(C)C)[C@@H]3[C@@H](O)[C@H]12 [Methacycline] the “Fold differences, 6 day-assays” value [1] was 1.2, the IC50 [1, 11] was > 18 µM and the IC50 [1, 12] was 3.72 µM.
For CC[C@H](C)[C@H](NC(=O)[C@H]([C@@H](C)CC)N(C)C(C)=O)C(=O)N[C@H](C(=O)N[C@@H](CC(C)C)C(=O)[C@@]1(C)CO1)[C@@H](C)O [epoxomicin], the IC50 [5, 13] was 0.0152 ± 0.0034 µM.
For CCN(CC)CCCC(C)Nc1ccnc2cc(Cl)ccc12 (centres unmarked) [Chloroquine, Chloroquine diphosphate], the “Fold differences, 3 day-assays” value [1] was 0.57, the “Fold differences, 6 day-assays” value [1] was 0.61 and the IC50 ([1]; Plasmodium falciparum, 3D7, 72 h, read-out: IC50, 3D7 (Table 4)) was 0.0084 ± 0.0049 µM. The IC50 [1, 9] was 0.0084 ± 0.0049 µM, the IC50 [1, 10] was 0.0104 ± 0.0048 µM and the IC50 (HepG2 cells; Homo sapiens, HepG2, 24 h) was 153 µM. For the same molecule, the “SI 3D7” value (HepG2 cells) was 18,214, the “SI A1-H.1” value (HepG2 cells) was 10,551 and the IC50 ([2]; Plasmodium falciparum, DD2, 72 h) was 0.302 ± 0.119 µM. The IC50 ([3]; Plasmodium falciparum, K1, 72 h) was 0.401 ± 0.0283 µM, the IC50 ([4]; Plasmodium falciparum, 7G8, 72 h) was 0.304 ± 0.0182 µM and the “increase of IC50 by supplementation of KCl” value [7] was “no difference was observed”. The IC50 ([7]; Plasmodium falciparum, 3D7, 72 h, read-out: IC50 (in nM) control) was 12 ± 0.8 nM, the IC50 ([7]; Plasmodium falciparum, 3D7, 72 h, read-out: IC50, KCl supplemented) was 11.6 ± 1.4 nM and the IC50 ([7]; Plasmodium falciparum, 3D7, 72 h, read-out: IC50, MgCl2 supplemented) was 2.2 nM.
In the case of CO[C@@H]1[C@@H](O[C@@H]2O[C@H](C)[C@@H](O[C@H]3C[C@@](C)(O)[C@@H](OC(=O)CC(C)C)[C@H](C)O3)[C@H](N(C)C)[C@H]2O)[C@@H](CC=O)C[C@@H](C)[C@@H](O)/C=C/C=C/C[C@@H](C)OC(=O)C[C@H]1OC(C)=O [Josamycin], the “Fold differences, 6 day-assays” value [1] is reported as 2.3, the IC50 [1, 11] is reported as > 18 µM and the IC50 [1, 12] is reported as 0.388 ± 0.185 µM.
In the case of C[C@H]1c2cccc(O)c2C(=O)C2=C(O)[C@]3(O)C(=O)C(C(N)=O)=C(O)[C@@H](N(C)C)[C@@H]3[C@@H](O)[C@@H]21 [Doxycycline, Doxycycline Hyclate], the “Fold differences, 3 day-assays” value [1] is reported as 5.1, the “Fold differences, 6 day-assays” value [1] is reported as 0.58 and the IC50 [1, 11] is reported as 9.58 ± 2.76 µM. For the same molecule, the IC50 [1, 12] was 0.386 ± 0.292 µM.
For CN(C)[C@@H]1C(O)=C(C(=O)NCNCCCC[C@H](N)C(=O)O)C(=O)[C@@]2(O)C(O)=C3C(=O)c4c(O)cccc4[C@@](C)(O)[C@H]3C[C@@H]12 [Lymecycline], the “Fold differences, 6 day-assays” value [1] was 1, the IC50 [1, 9] was > 18 µM and the IC50 [1, 10] was 1.12 ± 0.247 µM.
With CN(C)[C@@H]1C(O)=C(C(N)=O)C(=O)[C@@]2(O)C(O)=C3C(=O)c4c(O)c(NC(=O)CN5CCCC5)cc(F)c4C[C@H]3C[C@@H]12 [Eravacycline] the “Fold differences, 3 day-assays” value [1] was 1.08, the “Fold differences, 6 day-assays” value [1] was 0.4 and the IC50 [1, 9] was 2.51 ± 0.55 µM. The IC50 [1, 10] was 0.0051 µM.

Source: US20240277738A1, “GAMETOCYTOCIDAL COMPOUND” (Eberhard Karls Universität Tübingen Medizinische Fakultãt, priority 2021, published 2024)
